# Values quoted from earlier work in US10035822B2, “Cell-reactive, long-acting, or targeted compstatin analogs and related compositions and methods” (APELLIS PHARMACEUTICALS, INC., priority 2012, dated 2018).
# Non-standard residues stand in square brackets, D forms with d. Trp(6-F) = N[C@@H](Cc1c[nH]c2cc(F)ccc12)C(=O)O; Bpa = N[C@@H](Cc1ccc(C(=O)c2ccccc2)cc1)C(=O)O; 1Nal = N[C@@H](Cc1cccc2ccccc12)C(=O)O; 2Nal = N[C@@H](Cc1ccc2ccccc2c1)C(=O)O
# Test system: complement activation
# Details: relative to compstatin amidated at the C-terminus; published data (WO2004/026328, WO2007044668, Mallik 2005, Katragadda 2006); cited from earlier work
row,Substance,Activity over compstatin [× more]
1,Ac-ICV(1-Nal)QDWGAHRCT-COOH (Ac-ICV[1Nal]QDWGAHRCT-OH; cysteine pairing not given here) [Ac V4(1-Nal)/H9A-OH],30
2,Ac-ICV(2-IgI)QDWGAHRCT-CONH2 (Ac-ICV[2‑Igl]QDWGAHRCT-NH2; cysteine pairing not given here) [Ac-V42IgI/H9A],39
3,Ac-ICV(2-IgI)QDWGAHRCT-COOH (Ac-ICV[2‑Igl]QDWGAHRCT-OH; cysteine pairing not given here) [Ac-V42IgI/H9A-OH],37
4,Ac-ICV(2-Nal)QDWGAHRCT-CONH2 (Ac-ICV[2Nal]QDWGAHRCT-NH2; cysteine pairing not given here) [Ac-V4(2-Nal)/H9A],99
5,Ac-ICV(2-Nal)QDWGAHRCT-COOH (Ac-ICV[2Nal]QDWGAHRCT-OH; cysteine pairing not given here) [Ac V4(2-Nal)/H9A-OH],38
6,Ac-ICV(5-methyl-W)QDWGAHRCT-CONH2 [Ac-V4(5-MeW)/H9A],67
7,Ac-ICV(5fW)QDWGAHRCT-CONH2 [Ac-V4(5fW)/H9A],31
8,Ac-ICV(Bpa)QDWGAHRCT-CONH2 (Ac-ICV[Bpa]QDWGAHRCT-NH2; cysteine pairing not given here) [Ac-V4(Bpa)/H9A],86
9,Ac-ICV(Bpa)QDWGAHRCT-COOH (Ac-ICV[Bpa]QDWGAHRCT-OH; cysteine pairing not given here) [Ac-V4(Bpa)/H9A-OH],49
10,Ac-ICVDhtQDWGAHRCT-COOH [Ac-V4Dht/H9A-OH],5
11,Ac-ICVVQDWGHHRCT-CONH2 [Ac-compstatin],3
12,Ac-ICVWQD(5fW)GAHRCT-CONH2 [Ac-V4W/W7(5fW)/H9A],121
13,Ac-ICVWQDWGAHRCT-CONH2 [Ac-V4W/H9A],45
14,Ac-ICVWQDWGAHRCdT-COOH [Ac-V4W/H9A/T13dT-OH],55
15,Ac-ICVYQDWGAHRCT-CONH2 [Ac-V4Y/H9A],14
16,H-GICV(6fW)QD(6fW)GAHRCTN-COOH (H-GICV[Trp(6-F)]QD[Trp(6-F)]GAHRCTN-OH; cysteine pairing not given here) [+G/V4(6fW)/W7(6fW)H9A + N-OH],126
